The results in this text go back to PubChem BioAssay AID332 (DTP/NCI, 2004).

The assay has as its system mice, ADJ-PC-20 plasma cell tumor sc, T/C %. As to the kind of experiment: NCI In Vivo Anticancer Drug Screen. Data for tumor model ADJ-PC-20 Plasma Cell (subcutaneous) in unknown mice. Conditions: endpoint: mean tumor weight, higher = larger tumour. On the procedure:
The antitumor activity of compounds was measured in mice bearing transplantable tumors. Survival or tumor size were measured and the results are expressed as the measurement made in the treated group (T) divided by the measurement made in the vehicle treated control group (C). The tumor model used in this assay is ADJ-PC-20 Plasma Cell (subcutaneous) in unknown mice

Setting [1] is: dose: 6.25 mg/kg/injection, schedule: Q01DX010 (ip), vehicle: carboxymethylcellulose (CMC).
Setting [2] is: dose: 12.5 mg/kg/injection, schedule: Q01DX010 (ip), vehicle: carboxymethylcellulose (CMC).
Setting [3] is: dose: 25.0 mg/kg/injection, schedule: Q01DX010 (ip), vehicle: carboxymethylcellulose (CMC).
Setting [4] is: dose: 50.0 mg/kg/injection, schedule: Q01DX010 (ip), vehicle: carboxymethylcellulose (CMC).
Setting [5] is: dose: 10.0 mg/kg/injection, schedule: Q01DX010 (ip), vehicle: carboxymethylcellulose (CMC).
Setting [6] is: dose: 0.63 mg/kg/injection, schedule: Q01DX010 (ip), vehicle: carboxymethylcellulose (CMC).
Setting [7] is: dose: 0.12 mg/kg/injection, schedule: Q01DX010 (ip), vehicle: carboxymethylcellulose (CMC).
Setting [8] is: dose: 0.25 mg/kg/injection, schedule: Q01DX010 (ip), vehicle: carboxymethylcellulose (CMC).
Setting [9] is: dose: 0.5 mg/kg/injection, schedule: Q01DX010 (ip), vehicle: carboxymethylcellulose (CMC).
The mark [10] stands for this setting: dose: 1.0 mg/kg/injection, schedule: Q01DX010 (ip), vehicle: carboxymethylcellulose (CMC).
The mark [11] stands for this setting: dose: 2.0 mg/kg/injection, schedule: Q01DX010 (ip), vehicle: carboxymethylcellulose (CMC).
[12] abbreviates: dose: 4.0 mg/kg/injection, schedule: Q01DX010 (ip), vehicle: carboxymethylcellulose (CMC).
The mark [13] stands for this setting: dose: 8.0 mg/kg/injection, schedule: Q01DX010 (ip), vehicle: carboxymethylcellulose (CMC).

Structures are written as SMILES. Values joined by “and” are separate entries in the source; they are usually repeats but may differ in a detail not shown here. Equal values may be shown once. Records with an inconclusive call do not appear.

As for `CS(=O)(=O)OCCCCOS(C)(=O)=O`, the T/C (dose: 6.25 mg/kg/injection, schedule: Q01DX010 (ip), vehicle: methylcellulose (MC)) was 93 % of control; the T/C (dose: 12.5 mg/kg/injection, schedule: Q01DX010 (ip), vehicle: methylcellulose (MC)) is 66 % of control; the T/C (dose: 25.0 mg/kg/injection, schedule: Q01DX010 (ip), vehicle: methylcellulose (MC)) is 71 % of control and 72 % of control; the T/C (dose: 50.0 mg/kg/injection, schedule: Q01DX010 (ip), vehicle: methylcellulose (MC)) was 42 % of control.
As for `CN(Cc1cnc2nc(N)nc(N)c2n1)c1c(Cl)cc(C(=O)NC(CCC(=O)O)C(=O)O)cc1Cl` (stereo not given), the T/C runs as follows: under setting [1], 93 % of control; under setting [2], 112 % of control; under setting [3], 79 % of control and 97 % of control; under setting [4], 71 % of control.
In the case of `C[C@]12CCC(=O)C[C@H]1CC[C@@H]1[C@@H]2CC[C@@]2(C)[C@H]1CC[C@]2(C)O`, the T/C runs as follows: (dose: 500.0 mg/kg/injection, schedule: Q01DX010 (sc), vehicle: steriod suspending solution) 105 % of control and 119 % of control; (dose: 1000.0 mg/kg/injection, schedule: Q01DX010 (sc), vehicle: steriod suspending solution) 96 % of control.
For `CC/C(=C(/CC)c1ccc(O)cc1)c1ccc(O)cc1`, the T/C (dose: 62.5 mg/kg/injection, schedule: Q01DX010 (sc), vehicle: steriod suspending solution) is 105 % of control.
With `O=C1C(NC(=O)C2CCCCC2)=C(N2CC2)C(=O)C(NC(=O)C2CCCCC2)=C1N1CC1`, the T/C (dose: 37.5 mg/kg/injection, schedule: Q01DX010 (ip), vehicle: carboxymethylcellulose (CMC)) is 102 % of control and 115 % of control.
`CC1CCOS(=O)O1` (stereo not given): the T/C was 65 % of control under setting [5]; 50 % of control (dose: 20.0 mg/kg/injection, schedule: Q01DX010 (ip), vehicle: carboxymethylcellulose (CMC)); 32 % of control (dose: 40.0 mg/kg/injection, schedule: Q01DX010 (ip), vehicle: carboxymethylcellulose (CMC)).
`CCCCCCCCCCCCNCCCCCCCCCCCC`: the T/C is 109 % of control (dose: 0.9 mg/kg/injection, schedule: Q01DX010 (ip), vehicle: carboxymethylcellulose (CMC)); 109 % of control (dose: 1.8 mg/kg/injection, schedule: Q01DX010 (ip), vehicle: carboxymethylcellulose (CMC)); 98 % of control (dose: 3.7 mg/kg/injection, schedule: Q01DX010 (ip), vehicle: carboxymethylcellulose (CMC)); 88 % of control and 110 % of control (dose: 7.5 mg/kg/injection, schedule: Q01DX010 (ip), vehicle: carboxymethylcellulose (CMC)).
On to `Nc1ncnc2c1ccn2C1OC(CO)C(O)C1O` (stereo not given), for which the T/C under setting [6] was 94 % of control.
As to `CSc1ncnc2c1ncn2C1OC(CO)C(O)C1O` (stereo not given), the T/C runs as follows: (dose: 3.1 mg/kg/injection, schedule: Q01DX010 (ip), vehicle: carboxymethylcellulose (CMC)) 84 % of control; under setting [1], 98 % of control; under setting [2], 104 % of control; under setting [3], 14 % of control.
`CS(=O)(=O)OCCCl`: the T/C reads like this: under setting [2], 120 % of control; under setting [3], 114 % of control; under setting [4], 76 % of control; (dose: 100.0 mg/kg/injection, schedule: Q01DX010 (ip), vehicle: carboxymethylcellulose (CMC)) 124 % of control.
Regarding `O=c1[nH]cc(F)c(=O)[nH]1`, the T/C is 173 % of control (dose: 1.56 mg/kg/injection, schedule: Q01DX010 (ip), vehicle: saline); 35 % of control (dose: 6.25 mg/kg/injection, schedule: Q01DX010 (ip), vehicle: saline); 20 % of control (dose: 12.5 mg/kg/injection, schedule: Q01DX010 (ip), vehicle: saline).
Consider `CC(=O)O[C@]1(C(C)=O)CC[C@H]2[C@@H]3C[C@H](C)C4=CC(=O)C=C[C@]4(C)[C@@]3(F)[C@@H](O)C[C@@]21C`, for which the T/C (dose: 5.0 mg/kg/injection, schedule: Q01DX010 (sc), vehicle: steriod suspending solution) was 82 % of control; the T/C (dose: 10.0 mg/kg/injection, schedule: Q01DX010 (sc), vehicle: steriod suspending solution) was 55 % of control; the T/C (dose: 20.0 mg/kg/injection, schedule: Q01DX010 (sc), vehicle: steriod suspending solution) was 74 % of control; the T/C (dose: 40.0 mg/kg/injection, schedule: Q01DX010 (sc), vehicle: steriod suspending solution) was 73 % of control; the T/C (dose: 80.0 mg/kg/injection, schedule: Q01DX010 (sc), vehicle: steriod suspending solution) is 33 % of control.
On to `Nc1nc(=S)c2[nH]cnc2[nH]1`, for which the T/C is 112 % of control under setting [7]; 39 % of control and 62 % of control under setting [8]; 9 % of control under setting [9]; 52 % of control (dose: 62.0 micrograms/kg/injection, schedule: Q01DX010 (ip), vehicle: carboxymethylcellulose (CMC)); 23 % of control (dose: 125.0 micrograms/kg/injection, schedule: Q01DX010 (ip), vehicle: carboxymethylcellulose (CMC)); 14 % of control (dose: 250.0 micrograms/kg/injection, schedule: Q01DX010 (ip), vehicle: carboxymethylcellulose (CMC)).
As to `Oc1cc(CN(CCCl)CCCl)c(O)cc1CN(CCCl)CCCl`, the T/C reads like this: (dose: 0.22 mg/kg/injection, schedule: Q01DX010 (sc), vehicle: steriod suspending solution) 62 % of control; (dose: 0.45 mg/kg/injection, schedule: Q01DX010 (sc), vehicle: steriod suspending solution) 69 % of control; (dose: 0.9 mg/kg/injection, schedule: Q01DX010 (sc), vehicle: steriod suspending solution) 76 % of control; (dose: 1.8 mg/kg/injection, schedule: Q01DX010 (sc), vehicle: steriod suspending solution) 28 % of control.
Regarding `CC(=O)OCC1OC(n2ncc(=O)[nH]c2=O)C(OC(C)=O)C1OC(C)=O` (stereo not given), the T/C is 55 % of control (dose: 125.0 mg/kg/injection, schedule: Q01DX010 (ip), vehicle: other); 58 % of control (dose: 250.0 mg/kg/injection, schedule: Q01DX010 (ip), vehicle: other); 48 % of control (dose: 500.0 mg/kg/injection, schedule: Q01DX010 (ip), vehicle: other).
Take `O=C(Nc1ccc(C2=NCCCN2)cc1)c1ccc(NC(=O)c2ccc(C3=NCCCN3)cc2)cc1`: the T/C under setting [7] was 99 % of control; the T/C under setting [8] is 87 % of control; the T/C under setting [9] is 109 % of control; the T/C under setting [10] is 84 % of control; the T/C under setting [11] is 94 % of control; the T/C under setting [12] was 83 % of control. The T/C under setting [13] was 56 % of control.
For `CSCS(=O)C[C@H](CO)NC(=O)/C=C/c1c(C)[nH]c(=O)[nH]c1=O` (stereo not given in full), the T/C is, setting by setting: (dose: 0.25 mg/kg/injection, schedule: Q01DX010 (ip), vehicle: saline) 71 % of control; (dose: 0.5 mg/kg/injection, schedule: Q01DX010 (ip), vehicle: saline) 82 % of control.
As to `Nc1nc(=S)c2ncn(C3OC(CO)C(O)C3O)c2[nH]1` (stereo not given), the T/C was 63 % of control (dose: 0.31 mg/kg/injection, schedule: Q01DX010 (ip), vehicle: carboxymethylcellulose (CMC)); 31 % of control under setting [6]; 7 % of control (dose: 1.25 mg/kg/injection, schedule: Q01DX010 (ip), vehicle: carboxymethylcellulose (CMC)); 1 % of control (dose: 2.5 mg/kg/injection, schedule: Q01DX010 (ip), vehicle: carboxymethylcellulose (CMC)).
Take `N#[N+]c1cnc([O-])[nH]c1=O`: the T/C is 99 % of control (dose: 5.0 mg/kg/injection, schedule: Q01DX010 (ip), vehicle: carboxymethylcellulose (CMC)) and 90 % of control under setting [5].
For the molecule `CN(C)c1ccc(/C=C\c2ccnc3ccccc23)cc1`, the T/C runs as follows: (dose: 6.3 mg/kg/injection, schedule: Q01DX010 (ip), vehicle: water) 70 % of control; (dose: 12.5 mg/kg/injection, schedule: Q01DX010 (ip), vehicle: water) 52 % of control; (dose: 25.0 mg/kg/injection, schedule: Q01DX010 (ip), vehicle: water) 48 % of control; (dose: 25.0 mg/kg/injection, schedule: Q01DX011 (ip), vehicle: water) 92 % of control.
Regarding `N[C@@H](Cc1ccc(N(CCCl)CCCl)cc1)C(=O)O`, the T/C is, setting by setting: (dose: 0.3 mg/kg/injection, schedule: Q01DX010 (ip), vehicle: saline) 48 % of control; (dose: 0.63 mg/kg/injection, schedule: Q01DX010 (ip), vehicle: saline) 75 % of control; (dose: 1.25 mg/kg/injection, schedule: Q01DX010 (ip), vehicle: saline) 52 % of control.
As for `CCn1cnc2c(=S)nc[nH]c21`, the T/C was 71 % of control under setting [10], 48 % of control under setting [11], 11 % of control under setting [12] and 2 % of control under setting [13].
